{"source": "patent US8865672B2", "about": "“Prevention of tissue ischemia and related methods” (The United States of America, as represented by the …, priority 2006, dated 2014)", "key": {"HASMC [1]": {"tested_on": "HASMC", "experiment": "NO-stimulated HASMC adhesion on type I collagen", "format": "cell-based, human", "settings": "DEA/NO 10 μM, 1 h", "description": "Cell adhesion was carried out in 96-well culture plates. After pre-coating wells with type I collagen (3 μg/ml in DPBS) harvested cells were plated at a density of 1×10^4 cells/well in medium plus 0.1% BSA and treatment agents and incubated in 5% CO2 for 1 h. Wells were washed with PBS and cells fixed with 1% glutaraldehyde for 10 min., washed and stained with 1% crystal violet for 20 min. Excess stain was rinsed away, adherent cells treated with 10% acetic acid, and plates read at 570 nm."}, "HASMC [2]": {"tested_on": "HASMC", "experiment": "Intracellular cGMP in HASMC", "format": "cell-based, human", "settings": "DEA/NO 10 μM, 5 minutes"}, "HASMC [3]": {"tested_on": "HASMC", "experiment": "HASMC proliferation (MTS)", "format": "cell-based, human", "settings": "DETA/NO 10 μM, 72 h", "description": "Proliferation of vascular cells was measured with a non-radioactive colorimetric assay (CellTiter 96, Promega, Madison, Wis.). Briefly, to each well of a 96-well culture plate (Nunc, Denmark) 5×10^3 cells were suspended in 100 μl of culture medium with indicated treatments and incubated for 72 hours at 37° C. in a 5% CO2 atmosphere. Following incubation 20 μl of tetrazolium compound/solubilization agent was added and incubation continued for 4 hours under the same conditions. The plate was then read on a MR580 Microelisa Auto Reader (Dynatech) at a wavelength of 490 nm. Appropriate zero time controls were run for all assays and the optical density readings obtained then subtracted from those obtained at 72 hours."}, "[4]": {"tested_on": "murine ASMC (WT, CD36 null, CD47 null)", "experiment": "Intracellular cGMP in murine ASMC", "format": "cell-based, mouse", "procedure,_shortened": "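Aortic smooth muscle cells from wild-type C57Bl/6, CD36-null or CD47-null mice, passage 1–4, plated overnight in full growth medium. Weaned to SM-GM + 0.1% BSA before treatment with NO donor and other agents. Intracellular cGMP measured by enzyme immunoassay.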"}}, "data": [{"substance": "CBD: recombinant C-terminal cell-binding domain (G module) of TSP1", "values": [{"measurement": "NO-stimulated HASMC adhesion on type I collagen", "setting": "HASMC [1]", "value": "slightly less active but also dose-dependently inhibited"}, {"measurement": "NO-stimulated cGMP levels in HASMC", "setting": "HASMC [2]", "value": "equipotent dose-dependent inhibitors"}, {"measurement": "NO-stimulated HASMC proliferation", "setting": "HASMC [3]", "value": "inhibited NO-stimulated HASMC proliferation"}, {"measurement": "NO-stimulated cGMP", "setting": "[4]; CD36 null MASMC", "value": "completely inhibited"}, {"measurement": "NO-stimulated cGMP", "setting": "[4]; CD47 null MASMC", "value": "did not significantly inhibit"}]}]}
